In patent US20260042731A1, “(2,4-DICHLOROPHENOXY)ACETIC ACID ANALOGS” (CORTEVA AGRISCIENCE LLC, priority 2022, published 2026):
Read-outs that look alike come from different tables or passages of the source.

Experiments:
[1] = system: Abutilon theophrasti (ABUTH), velvetleaf; assay: Postemergence herbicide evaluation, growth of Abutilon theophrasti (ABUTH); type: in vivo; settings: for pest or weed control at 280 g/ha / pest or weed control at 560 g/ha: Abutilon theophrasti, post-emergence, percent reduction in plant size relative to untreated control, read-out: AVE. ABUTH; for AVE. ABUTH: percent reduction in plant size vs untreated control
[2] = system: Chenopodium album (CHEAL), common lambsquarters; assay: Postemergence herbicide evaluation, growth of Chenopodium album (CHEAL); type: in vivo; settings: for pest or weed control at 280 g/ha / pest or weed control at 560 g/ha: Chenopodium album, post-emergence, percent reduction in plant size relative to untreated control, read-out: Ave. CHEAL; for Ave. CHEAL: percent reduction in plant size vs untreated control
[3] = Volatility of compounds measured by thermogravimetric analysis (TGA); type: physicochemical
[4] = system: Glycine max (Enlist E3 traited soybeans, GLXMA)
[5] = system: glyphosate resistant Conyza canadensis (L.) (ERICA), horseweed; assay: Postemergence herbicide evaluation, growth of Conyza canadensis (ERICA); type: in vivo; settings: for pest or weed control at 280 g/ha / pest or weed control at 560 g/ha: Erigeron canadensis, post-emergence, percent reduction in plant size relative to untreated control, read-out: Ave. ERICA; for Ave. ERICA: percent reduction in plant size vs untreated control
[6] = system: Amaranthus rudis (AMATA), tall water hemp; assay: Postemergence herbicide evaluation, growth of Amaranthus rudis (AMATA); type: in vivo; settings: for pest or weed control at 280 g/ha / pest or weed control at 560 g/ha: Amaranthus tuberculatus, post-emergence, percent reduction in plant size relative to untreated control, read-out: Ave. AMATA; for Ave. AMATA: percent reduction in plant size vs untreated control
[7] = system: weeds (ABUTH, AMATA, AMBEL, CHEAL, ERICA); assay: Postemergence herbicide evaluation, overall average % weed control across ABUTH, AMATA, AMBEL, CHEAL, ERICA; type: in vivo; settings: post-emergence, average over the five weeds, read-out: Overall Ave % Weed Control; for pest or weed control at 280 g/ha: 280 g ae/ha; for pest or weed control at 560 g/ha: 560 g ae/ha
[8] = system: Ambrosia artemisiifolia (AMBEL), common ragweed; assay: Postemergence herbicide evaluation, growth of Ambrosia artemisiifolia (AMBEL); type: in vivo; settings: for pest or weed control at 280 g/ha / pest or weed control at 560 g/ha: Ambrosia artemisiifolia, post-emergence, percent reduction in plant size relative to untreated control, read-out: AVE. AMBEL; for AVE. AMBEL: percent reduction in plant size vs untreated control
[9] = system: weeds ABUTH, AMATA, AMBEL, CHEAL, ERICA; assay: Postemergence herbicide evaluation, overall average % weed control across ABUTH, AMATA, AMBEL, CHEAL and ERICA; type: in vivo; settings: average over five weeds

## Cc1ccc(S(=O)(=O)NC(=O)COc2ccc(Cl)cc2Cl)cc1 [Compound D5]
[1]; 168 h, 280 g ae/ha, 7 DAA
  pest or weed control at 280 g/ha: 30%
[1]; 168 h, 560 g ae/ha, 7 DAA
  pest or weed control at 560 g/ha: 40%
[1]; 336 h, 280 g ae/ha, 14 DAA
  pest or weed control at 280 g/ha: 23%
[1]; 336 h, 560 g ae/ha, 14 DAA
  pest or weed control at 560 g/ha: 35%
[1]; 504 h, 280 g ae/ha, 21 DAA
  pest or weed control at 280 g/ha: 25%
[1]; 504 h, 560 g ae/ha, 21 DAA
  pest or weed control at 560 g/ha: 25%
[2]; 168 h, 280 g ae/ha, 7 DAA
  pest or weed control at 280 g/ha: 65%
[2]; 168 h, 560 g ae/ha, 7 DAA
  pest or weed control at 560 g/ha: 73%
[2]; 336 h, 280 g ae/ha, 14 DAA
  pest or weed control at 280 g/ha: 70%
[2]; 336 h, 560 g ae/ha, 14 DAA
  pest or weed control at 560 g/ha: 73%
[2]; 504 h, 280 g ae/ha, 21 DAA
  pest or weed control at 280 g/ha: 65%
[2]; 504 h, 560 g ae/ha, 21 DAA
  pest or weed control at 560 g/ha: 68%
[3]
  TGA Data (rate of weight loss, volatility): 0.02 µg/min
[4]; 280 g ae/ha, 7 DAA, Enlist E3 soybeans, percent reduction in plant size relative to untreated control
  AVE. GLXMA: 4%
[4]; 280 g ae/ha, 14 DAA, Enlist E3 soybeans, percent reduction in plant size relative to untreated control
  AVE. GLXMA: 2%
[4]; 280 g ae/ha, 21 DAA, Enlist E3 soybeans, percent reduction in plant size relative to untreated control
  AVE. GLXMA: 3%
[4]; 560 g ae/ha, 7 DAA, Enlist E3 soybeans, percent reduction in plant size relative to untreated control
  AVE. GLXMA: 9%
[4]; 560 g ae/ha, 14 DAA, Enlist E3 soybeans, percent reduction in plant size relative to untreated control
  AVE. GLXMA: 5%
[4]; 560 g ae/ha, 21 DAA, Enlist E3 soybeans, percent reduction in plant size relative to untreated control
  AVE. GLXMA: 5%
[5]; 168 h, 280 g ae/ha, 7 DAA
  pest or weed control at 280 g/ha: 63%
[5]; 168 h, 560 g ae/ha, 7 DAA
  pest or weed control at 560 g/ha: 53%
[5]; 336 h, 280 g ae/ha, 14 DAA
  pest or weed control at 280 g/ha: 78%
[5]; 336 h, 560 g ae/ha, 14 DAA
  pest or weed control at 560 g/ha: 75%
[5]; 504 h, 280 g ae/ha, 21 DAA
  pest or weed control at 280 g/ha: 73%
[5]; 504 h, 560 g ae/ha, 21 DAA
  pest or weed control at 560 g/ha: 68%
[6]; 168 h, 280 g ae/ha, 7 DAA
  pest or weed control at 280 g/ha: 73%
[6]; 168 h, 560 g ae/ha, 7 DAA
  pest or weed control at 560 g/ha: 73%
[6]; 336 h, 280 g ae/ha, 14 DAA
  pest or weed control at 280 g/ha: 78%
[6]; 336 h, 560 g ae/ha, 14 DAA
  pest or weed control at 560 g/ha: 75%
[6]; 504 h, 280 g ae/ha, 21 DAA
  pest or weed control at 280 g/ha: 75%
[6]; 504 h, 560 g ae/ha, 21 DAA
  pest or weed control at 560 g/ha: 73%
[7]; 168 h, 7 DAA
  pest or weed control at 280 g/ha: 56%
  pest or weed control at 560 g/ha: 61%
[7]; 336 h, 14 DAA
  pest or weed control at 280 g/ha: 63%
  pest or weed control at 560 g/ha: 70%
[7]; 504 h, 21 DAA
  pest or weed control at 280 g/ha: 59%
  pest or weed control at 560 g/ha: 63%
[8]; 168 h, 280 g ae/ha, 7 DAA
  pest or weed control at 280 g/ha: 48%
[8]; 168 h, 560 g ae/ha, 7 DAA
  pest or weed control at 560 g/ha: 65%
[8]; 336 h, 280 g ae/ha, 14 DAA
  pest or weed control at 280 g/ha: 68%
[8]; 336 h, 560 g ae/ha, 14 DAA
  pest or weed control at 560 g/ha: 90%
[8]; 504 h, 280 g ae/ha, 21 DAA
  pest or weed control at 280 g/ha: 58%
[8]; 504 h, 560 g ae/ha, 21 DAA
  pest or weed control at 560 g/ha: 85%

## CC(C)CCCCCOC(=O)COc1ccc(Cl)cc1Cl [Isooctyl Ester, 2,4-D-isoctyl, reference compound]
[1]; 280 g ae/ha, 7 DAA
  AVE. ABUTH: 72.5%
[1]; 280 g ae/ha, 14 DAA
  AVE. ABUTH: 80%
[1]; 280 g ae/ha, 21 DAA
  AVE. ABUTH: 97.5%
[1]; 560 g ae/ha, 7 DAA
  AVE. ABUTH: 77.5%
[1]; 560 g ae/ha, 14 DAA
  AVE. ABUTH: 98.5%
[1]; 560 g ae/ha, 21 DAA
  AVE. ABUTH: 100%
[2]; 280 g ae/ha, 7 DAA
  Ave. CHEAL: 82.5%
[2]; 280 g ae/ha, 14 DAA
  Ave. CHEAL: 95%
[2]; 280 g ae/ha, 21 DAA
  Ave. CHEAL: 96%
[2]; 560 g ae/ha, 7 DAA
  Ave. CHEAL: 77.5%
[2]; 560 g ae/ha, 14 DAA
  Ave. CHEAL: 96.5%
[2]; 560 g ae/ha, 21 DAA
  Ave. CHEAL: 93.5%
[9]; 280 g ae/ha, 7 DAA
  Overall Ave % Weed Control: 80.5%
[9]; 280 g ae/ha, 14 DAA
  Overall Ave % Weed Control: 89%
[9]; 280 g ae/ha, 21 DAA
  Overall Ave % Weed Control: 91.3%
[9]; 560 g ae/ha, 7 DAA
  Overall Ave % Weed Control: 78%
[9]; 560 g ae/ha, 14 DAA
  Overall Ave % Weed Control: 94.2%
[9]; 560 g ae/ha, 21 DAA
  Overall Ave % Weed Control: 95.6%
[4]; 280 g ae/ha, 7 DAA, Enlist E3 soybean, percent reduction in plant size vs untreated control
  AVE. GLXMA: 0%
[4]; 280 g ae/ha, 14 DAA, Enlist E3 soybean, percent reduction in plant size vs untreated control
  AVE. GLXMA: 0%
[4]; 280 g ae/ha, 21 DAA, Enlist E3 soybean, percent reduction in plant size vs untreated control
  AVE. GLXMA: 0%
[4]; 560 g ae/ha, 7 DAA, Enlist E3 soybean, percent reduction in plant size vs untreated control
  AVE. GLXMA: 0%
[4]; 560 g ae/ha, 14 DAA, Enlist E3 soybean, percent reduction in plant size vs untreated control
  AVE. GLXMA: 0%
[4]; 560 g ae/ha, 21 DAA, Enlist E3 soybean, percent reduction in plant size vs untreated control
  AVE. GLXMA: 0%
[5]; 280 g ae/ha, 7 DAA
  Ave. ERICA: 85%
[5]; 280 g ae/ha, 14 DAA
  Ave. ERICA: 100%
[5]; 280 g ae/ha, 21 DAA
  Ave. ERICA: 98%
[5]; 560 g ae/ha, 7 DAA
  Ave. ERICA: 85%
[5]; 560 g ae/ha, 14 DAA
  Ave. ERICA: 98.5%
[5]; 560 g ae/ha, 21 DAA
  Ave. ERICA: 99.5%
[6]; 280 g ae/ha, 7 DAA
  Ave. AMATA: 80%
[6]; 280 g ae/ha, 14 DAA
  Ave. AMATA: 92.5%
[6]; 280 g ae/ha, 21 DAA
  Ave. AMATA: 65%
[6]; 560 g ae/ha, 7 DAA
  Ave. AMATA: 85%
[6]; 560 g ae/ha, 14 DAA
  Ave. AMATA: 87.5%
[6]; 560 g ae/ha, 21 DAA
  Ave. AMATA: 85%
[8]; 280 g ae/ha, 7 DAA
  AVE. AMBEL: 82.5%
[8]; 280 g ae/ha, 14 DAA
  AVE. AMBEL: 77.5%
[8]; 280 g ae/ha, 21 DAA
  AVE. AMBEL: 100%
[8]; 560 g ae/ha, 7 DAA
  AVE. AMBEL: 65%
[8]; 560 g ae/ha, 14 DAA
  AVE. AMBEL: 90%
[8]; 560 g ae/ha, 21 DAA
  AVE. AMBEL: 100%
